The source of these data is patent US10946012B2, “Methods for inducing tumor regression, inhibiting tumor growth, and inducing apoptosis in breast tumors with geranylgeranyltransferase I inhibitors” (H. Lee Moffitt Cancer Center and Research Institute, Inc., priority 2009, dated 2021).

Assay [1] has as its system Cdk2. To be noted: previous report (Adnane et al. 1998); cited from earlier work.
Assay [2] deals with MDA-MB-468 breast cancer cells. Put plainly: Trypan Blue exclusion assay (proliferation, cell death) in MDA-MB-468 cells. To be noted: 5 nM p27 siRNA; 50 μM GGTI-2417 or 1 μM taxol. It counts as cell-based, human. On the procedure:
Human MDA-MB-468 and MDA-MB-231 breast cancer cells and murine NIH 3T3 cells were obtained from the ATCC and cultured in DMEM medium. Human SK-Br3 and BT-474 breast cancer cells (ATCC) were cultured in McCoy's 5a medium and Hybri-Care medium, respectively. Mouse embryonic fibroblast (MEF) cells from p27 wild-type and p27 null mice were grown in DMEM. All media were supplemented with 10% fetal calf serum, 10 units/ml penicillin, and 10 μg/ml streptomycin. Subconfluent cells were treated with different concentrations of GGTI, FTI or DMSO vehicle for specific time periods. After treatment, cells were harvested by trypsinization.
Pre-designed siRNA to p27 (Cat #118714) and the negative control (Cat #4611) were purchased from Ambion (Austin, Tex.). Twenty-four hours before transfection, MDA-MB-468 cells were plated onto twelve-well plates in fresh DMEM medium containing 10% FBS and no antibiotics. Transient transfection of siRNA was carried out using Oligofectamine reagent (Invitrogen, Carlsbad, Calif.), following the manufacturer's instructions. In brief, 5 nM of p27 siRNA or control siRNA were mixed with Opti-MEM medium (Invitrogen) in such a way so that the total volume went to 90 μl, and then complexed with a mixture of 2 μl of Oligofectamine and 8 μl Opti-MEM; the total volume of RNA:Oligofectamine complex was 100 μl. The RNA:Oligofectamine complex was then incubated for 20 min at room temperature before adding to the cells. Before transfection, the old medium was discarded, cells were washed once with fresh Opti-MEM and 400 μl of fresh Opti-MEM placed into each well before adding the RNA:Oligofectamine complex to each well. The final diluted volume on each well was 500 μl. After 8 h, 500 μl DMEM containing 30% FBS was added to each well and cells were further incubated for 40 h.
Adherent cells were harvested by trypsinization and diluted with 0.4% Trypan Blue dye and counted on a hemacytometer. Cells excluding the dye were scored as live cells, whereas cells absorbing the dye were scored as dead cells. Cell proliferation was determined by dividing the number of live cells in the treated sample by the number of live cells in the control, and the degree of cell death was expressed as percentage of dead cells of the total cell number.

Assay [3] has as its target T1, GGTase I (Homo sapiens, UniProt P49354+P53609).
T1 construct: GGTase I and FTase activities from 60,000×g supernatants of human Burkitt's lymphoma (Daudi) cells; host or cells: Daudi (human Burkitt's lymphoma) cells, 60,000xg supernatant
As to the kind of experiment: In vitro GGTase I activity assay ([3H]GGPP transfer to H-Ras-CVLL). It counts as biochemical. On the procedure: (§1) A brief discussion of exemplary materials and methods follows. In vitro FTase and GGTase I activity assays were performed. GGTase I and FTase activities from 60,000×g supernatants of human Burkitt's lymphoma (Daudi) cells (American Type Culture Collection (ATCC), Rockville, Md.) were assayed as described previously.

The target in assay [4] is T2, FTase (Homo sapiens, UniProt P49354+P49356).
T2 construct: GGTase I and FTase activities from 60,000×g supernatants of human Burkitt's lymphoma (Daudi) cells; host or cells: Daudi (human Burkitt's lymphoma) cells, 60,000xg supernatant
As to the kind of experiment: In vitro FTase activity assay ([3H]FPP transfer to H-Ras-CVLS). It counts as biochemical. To be noted: read-out: IC50, inhibition of FTase activity. On the procedure:
as §1

Assay [5] concerns MDA-MB-231 breast cancer tumors. Put plainly: Anti-tumor activity in the nude mouse tumor xenograft model. To be noted: for average tumor size: vehicle 860±87. The assay is classed as in vivo, nude mice. On the procedure: Nude mice (nu/nu, Charles River, Wilmington, Mass.) were maintained in accordance with the Institutional Animal Care and Use Committee (IACUC) procedures and guidelines. MDA-MB-231 cells were harvested via trypsinization, pelleted at 805×g for 5 min, and re-suspended in a 50:50 mixture of sterile PBS and Matrigel (BD Biosciences) at 10×10^6 cells per 100 μl. A volume of 100 μl (˜10×10^6 cells) was injected orthotopically into the upper mammary fat pads of nude mice. The tumor xenografts were monitored by electronic caliper measurements and tumor volume (V) was calculated using the formula V=W^2L/2, where width (W) is […]. When the tumors reached ˜100 mm^3, the animals were randomized and injected intraperiteoneally daily with vehicle (70% DMSO), or 100 mg/kg GGTI-2417 or GGTI-2418, or every third day with GGTI-2418 (200 mg/kg. Tumors were measured every third day for 12-18 days.

The test system of assay [6] is ErbB2-driven mammary tumors. As to the kind of experiment: Anti-tumor activity in the ErbB2 transgenic mouse model. The assay is classed as in vivo. An excerpt:
(§2) A breeding pair of homozygous FVB/N-Tg (MMTVneu) 202Mul/J mice (JAX #002376, Bar Harbor, Me.) was used to generate a transgenic colony in accordance to IACUC protocols and procedures. Phenotypically, these mice overexpress the receptor tyrosine kinase ErbB2 driven by the MMTV promoter, which results in tumor formation at ˜200 days of age. Once tumors reached sizes above 800 mm^3, osmotic mini-pumps (Alzet, Cupertino, Calif.) were loaded with either vehicle (80% PEG300; 20% DMSO) or GGTI-2418 (100 mg/kg daily) and implanted subcutaneously under the dorsal surface of the mouse, between the shoulder blades. Vehicle or GGTI-2418 was constantly delivered for 14 days, during which tumor volumes were measured and calculated as described above. Tumor biopsies were snap frozen in liquid N2 and stored at −80° C. until further processed. Weighted tumor samples were mixed with the appropriate amount of T-PER® Tissue Protein Extraction Reagent (Pierce, Rockford, Ill.) containing protease inhibitor cocktail, 2 mM PMSF, 2 mM Na3VO4, and 6.4 mg/ml p-nitrophenylphosphate and homogenized with the PCR Tissue Homogenizing Kit (Fisher Scientific). The homogenate was centrifuged at 13,000×g for 30 min at 4° C. and the supernatant was subjected to Western blotting with the indicated antibodies.

Assay [7] concerns p27, Rap1, phospho-Akt. As to the kind of experiment: Western blot of tumor biopsies from ErbB2 transgenic mice. It counts as in vivo, mouse.
From the text: as §2

With `COC(=O)[C@H](CC(C)C)NC(=O)c1ccc(NC[C@@H](N)CS)cc1-c1cccc2ccccc12` [GGTI-298], the Cdk2 activity result in assay [1] is “inhibits Cdk2 activity”.

On to `CC(=O)O[C@H]1C(=O)[C@@]2(C)[C@H]([C@H](OC(=O)c3ccccc3)[C@]3(O)C[C@H](OC(=O)[C@H](O)[C@@H](NC(=O)c4ccccc4)c4ccccc4)C(C)=C1C3(C)C)[C@]1(OC(C)=O)CO[C@@H]1C[C@@H]2O` [taxol, reference compound], for which the “tumor cell death in the presence of p27 siRNA” value in assay [2] is listed as “could still die”.

As to `Cc1nc[nH]c1CN1CCN(C(=O)N[C@@H](CC(C)C)C(=O)O)[C@@H](Cc2ccccc2)C1=O` [GGTI-2418], the inhibition constant (Ki) in assay [3] (in vitro competition assay, read-out: Ki, competitive inhibition of GGTase I against H-Ras-CVLL protein) was 4.4 ± 1.6 nM. Further, the IC50 in assay [3] (in vitro, H-Ras-CVLL, [3H]GGPP, read-out: IC50, inhibition of GGTase I activity) was found to be 9.5 ± 2 nM. In addition, the IC50 in assay [4] was 53000 ± 11000 nM. In assay [5] (100 mg/kg daily i.p.), this compound displayed a tumor growth inhibition of 94% and an average tumor size of 139±17 mm^3. For the same compound, in assay [5] (200 mg/kg every 3rd day i.p.), the tumor growth inhibition is 77% and the average tumor size is 276±26 mm^3. In assay [6] (100 mg/kg, 7 mice, 17 tumors), the “tumor regression, average (S.E.M.)” value is 60±4%. Further, the “tumor decrease, representative example” value in assay [6] (100 mg/kg/day, osmotic mini-pump) came out at 76%. In assay [7] (pre vs post treatment biopsies), the “S473 phosphorylation of Akt in tumors” value is reported as “dramatic decrease” and the “geranylgeranylation of Rap1 in tumors” value was “inhibited the geranylgeranylation of Rap1”. Moreover, the “change of p27 in post-treatment tumor samples (densitometry)” value in assay [7] (vehicle 0.63±0.19 fold, p=0.03) was found to be 2.68±0.63 fold.
